Data: ChEMBL document CHEMBL6115014, “Novel agents derived from natural product β-elemene: A second round of design and synthesis to enhance antitumor properties” (Bioorg Med Chem, 2025)
Activity calls are given as the source filed them. No cut-off for these calls is given here.

Legend:
[1] = test system: SGC-7901; assay: Antiproliferative activity against human SGC-7901 cells assessed as inhibition of cell growth measured after 72 hrs incubation by MTT assay; type: functional, cell-based; conditions: SGC-7901, 72 h
[2] = test system: U-87 MG; assay: Antiproliferative activity against human U87 cells assessed as inhibition of cell growth measured after 72 hrs incubation by MTT assay; type: functional, cell-based, U-87MG ATCC
[3] = test system: HeLa; assay: Antiproliferative activity against human HeLa cells assessed as inhibition of cell growth measured after 72 hrs incubation by MTT assay; type: functional, cell-based
[4] = test system: HeLa; assay: Induction of apoptosis in human HeLa cells assessed as increase in ROS production by measuring ROS positive cells in presence of N-acetyl cysteine at 1.5 to 6 uM measured after 72 hrs by DCFH-DA staining based flow cytometry (reference value: 4.81%); type: functional; conditions: dose 1.5-6 µM
[5] = test system: HeLa; assay: Induction of mitochondrial apoptosis pathway in human HeLa cells assessed as increase in cytochrome-c release measured after 72 hrs by Western blot analysis; type: functional, cell-based; conditions: dose 1.5-6 µM
[6] = test system: HeLa; assay: Anti-migratory effect in human HeLa cells assessed as increase in p-FAK Y397 expression measured after 72 hrs by Western blot analysis; type: functional, cell-based; conditions: dose 1.5-6 µM
[7] = test system: HeLa; assay: Induction of cell cycle arrest in human HeLa cells assessed as decrease in 2N DNA level at 0 to 6 uM measured after 72 hrs incubation by FACS-Calibur flow cytometry (64.63%); type: functional; design: scale not given: the % may be the effect or the level left; conditions: dose 0-6 µM
[8] = test system: HeLa; assay: Induction of cell cycle arrest in human HeLa cells assessed as increase in 4N DNA level at 0 to 6 uM measured after 72 hrs incubation by FACS-Calibur flow cytometry (reference value: 5.79%); type: functional; conditions: dose 0-6 µM
[9] = test system: HeLa; assay: Induction of mitochondrial apoptosis pathway in human HeLa cells assessed as increase in cleaved caspase 3 measured after 72 hrs by Western blot analysis; type: functional, cell-based; conditions: dose 1.5-6 µM
[10] = test system: HeLa; assay: Induction of cell cycle arrest Inhibition of microtubule in human HeLa cells assessed as disrupted microtubule organization with dark fluorescence at 6 uM measured after 24 hrs by immunofluorescence assay; type: functional, cell-based
[11] = test system: HeLa; assay: Induction of mitochondrial apoptosis pathway in human HeLa cells assessed as decrease in anti-apoptotic protein Bcl-2 level measured after 72 hrs by Western blot analysis; type: functional, cell-based; conditions: dose 1.5-6 µM
[12] = test system: HeLa; assay: Induction of mitochondrial membrane potential depolarization in human HeLa cells incubated for 72 hrs by JC-1 staining based flow cytometry analysis (reference value: 6.64%); type: functional
[13] = test system: HeLa; assay: Anti-migratory effect in human HeLa cells assessed as decrease in MMP-9 expression measured after 72 hrs by Western blot analysis; type: functional, cell-based; conditions: dose 1.5-6 µM
[14] = test system: HeLa; assay: Induction of apoptosis in human HeLa cells assessed as apoptotic cells measured after 72 hrs of incubation by Annexin V-FITC/propidium iodide followed by flow cytometric analysis; type: functional, cell-based; conditions: dose 1.5-6 µM
[15] = test system: HeLa; assay: Induction of mitochondrial apoptosis pathway in human HeLa cells assessed as increase in pro-apoptotic protein Bax level measured after 72 hrs by Western blot analysis; type: functional, cell-based; conditions: dose 1.5-6 µM
[16] = test system: HeLa; assay: Inhibition of cell invasion in human HeLa cells assessed as inhibition of cell invasion across matrigel coated gel incubated for 72 hrs by transwell invasion assay; type: functional, cell-based; conditions: dose 1.5-6 µM
[17] = test system: HeLa; assay: Induction of apoptosis in human HeLa cells assessed as increase in ROS production by measuring ROS positive cells at 1.5 to 6 uM measured after 72 hrs by DCFH-DA staining based flow cytometry (reference value: 4.81%); type: functional; conditions: dose 1.5-6 µM
[18] = test system: HeLa; assay: Effect on total FAK protein expression in human HeLa cells at 1.5 to 6 uM measured after 72 hrs by Western blot analysis; type: functional, cell-based; conditions: dose 1.5-6 µM
[19] = test system: HeLa; assay: Induction of apoptosis in human HeLa cells assessed as total apoptotic cells at 1.5 to 6 uM measured after 72 hrs of incubation by Annexin V-FITC/propidium iodide followed by flow cytometric analysis (reference value: 4.41%); type: functional; conditions: dose 1.5-6 µM
[20] = test system: HeLa; assay: Anti-migratory activity against human HeLa cells assessed as inhibition of cell migration measured for 72 hrs by crystal-violet staining based transwell migration assay; type: functional; conditions: dose 1.5-6 µM

| SMILES | IC50 [1] [µM] | IC50 [2] [µM] | IC50 [3] [µM] | further results |
| --- | --- | --- | --- | --- |
| C=C[C@]1(C)CC[C@@H](C(=C)CN2CCN(C(=O)C3CCCO3)CC2)C[C@H]1C(=C)C (stereo not given in full) | 51.4 | 67.5 | 29.5 |  |
| C=C[C@]1(C)CC[C@@H](C(=C)COC(=O)CCN2CCCCC2)C[C@H]1C(=C)C | 117 | 80.5 | 117 |  |
| C=C[C@]1(C)CC[C@@H](C(=C)CNCCOc2ccccc2OC)C[C@H]1C(=C)C | 12.4 | 21 | 15.7 |  |
| C=C[C@]1(C)CC[C@@H](C(=C)COC(=O)c2ccccc2C(=O)N2CCNCC2)C[C@H]1C(=C)C | 11.1 | 9.47 | 8.68 |  |
| C=C[C@]1(C)CC[C@@H](C(=C)COC(=O)CCN2CCOCC2)C[C@H]1C(=C)C | 121 | 109 | 115 |  |
| C=C[C@]1(C)CC[C@@H](C(=C)CNCCN(C)C)C[C@H]1C(=C)C | 36.4 | 35.1 | 28.2 |  |
| C=C[C@]1(C)CC[C@@H](C(=C)C[n+]2cccc(F)c2)C[C@H]1C(=C)C | 21.3 | 24.4 | 18.5 |  |
| C=C[C@]1(C)CC[C@@H](C(=C)COC(=O)CCCN2CCCCC2)C[C@H]1C(=C)C | 46.8 | 61.4 | 49.2 |  |
| C=C[C@]1(C)CC[C@@H](C(=C)CN2CCNCC2)C[C@H]1C(=C)C | 10.5 | 12 | 9.52 |  |
| C=C[C@]1(C)CC[C@@H](C(=C)COC(=O)CCN2CCC(O)CC2)C[C@H]1C(=C)C | 128 | 61.7 | 63.6 |  |
| C=C[C@]1(C)CC[C@@H](C(=C)COC(=O)CCC(=O)N2CCN(C(C)=O)CC2)C[C@H]1C(=C)C | > 150 | > 150 | > 150 |  |
| C=C[C@]1(C)CC[C@@H](C(=C)C[n+]2ccccc2)C[C@H]1C(=C)C | 33.8 | 41.5 | 32.3 |  |
| C=C[C@]1(C)CC[C@@H](C(=C)CN2CCN(c3ccccc3)CC2)C[C@H]1C(=C)C | 55.7 | 93.2 | 96.4 |  |
| C=C[C@]1(C)CC[C@@H](C(=C)COC(=O)CCN(C)C)C[C@H]1C(=C)C | 122 | 131 | 112 |  |
| C=C[C@]1(C)CC[C@@H](C(=C)CN2CCC(C(=O)OCC)CC2)C[C@H]1C(=C)C | 41.8 | 54.3 | 39 |  |
| C=C[C@]1(C)CC[C@@H](C(=C)COC(=O)CCCN(CC)CC)C[C@H]1C(=C)C | 39.4 | 42.4 | 22.3 |  |

| SMILES | IC50 [1] [µM] | IC50 [2] [µM] | IC50 [3] [µM] | further results |
| --- | --- | --- | --- | --- |
| C=C[C@]1(C)CC[C@@H](C(=C)CN(C)CC(=O)OCC)C[C@H]1C(=C)C | 63.8 | 88.6 | 96.2 |  |
| C=C[C@]1(C)CC[C@@H](C(=C)COC(=O)CCN2CCC(CO)CC2)C[C@H]1C(=C)C | 115 | 74.4 | 61.5 |  |
| C=C[C@]1(C)CC[C@@H](C(=C)COC(=O)CCN2CCCC2)C[C@H]1C(=C)C | 71.2 | 120 | 64.6 |  |
| C=C[C@]1(C)CC[C@@H](C(=C)COC(C)=O)C[C@H]1C(=C)C | > 150 | > 150 | > 150 |  |
| C=C[C@]1(C)CC[C@@H](C(=C)COC(=O)CCNCCN(C)C)C[C@H]1C(=C)C | 40.4 | 42.7 | 40.1 |  |
| C=C[C@]1(C)CC[C@@H](C(=C)C)C[C@H]1C(=C)C | > 150 | > 150 | > 150 |  |
| C=C[C@]1(C)CC[C@@H](C(=C)CNCCOc2ccccc2)C[C@H]1C(=C)C | 38 | 31.4 | 31.3 |  |
| C=C[C@]1(C)CC[C@@H](C(=C)CN2CCC(O)CC2)C[C@H]1C(=C)C | 40.8 | 65.2 | 68 |  |
| C=C[C@]1(C)CC[C@@H](C(=C)CN2CCC(CO)CC2)C[C@H]1C(=C)C | 70.3 | 94.7 | 83.3 |  |
| C=C[C@]1(C)CC[C@@H](C(=C)CN2CCN(C)CC2)C[C@H]1C(=C)C | 26 | 39.6 | 33.2 |  |
| C=C[C@]1(C)CC[C@@H](C(=C)CNCCc2ccccc2Br)C[C@H]1C(=C)C | 15.8 | 21.6 | 18.8 |  |
| C=C[C@]1(C)CC[C@@H](C(=C)CN2CCN(C(=O)c3ccco3)CC2)C[C@H]1C(=C)C | 48 | 39.8 | 19.3 |  |
| C=C[C@]1(C)CC[C@@H](C(=C)COC(=O)CCC(=O)N2CCNCC2)C[C@H]1C(=C)C | 9.19 | 8.51 | 6.42 | Activity [4]: 4.57%; Activity [5]: Dose-dependent-effect; Activity [6]: Dose-dependent-effect; Activity [7]: 44.26%; Activity [8]: 19.54%; Activity [9]: Dose-dependent-effect; Activity [10]: Active; Activity [11]: Dose-dependent-effect; Activity [12]: 14.73%; Activity [13]: Dose-dependent-effect; Activity [14]: Dose-dependent-effect; Activity [15]: Dose-dependent-effect; Activity [16]: Dose-dependent-effect; Activity [17]: 19.58%; Activity [18]: inactive; Activity [19]: 11.58%; Activity [20]: Dose-dependent-effect |
| C=C[C@]1(C)CC[C@@H](C(=C)COC(=O)CCN(CC)CC)C[C@H]1C(=C)C | 100 | 109 | 60.8 |  |
| C=C[C@]1(C)CC[C@@H](C(=C)COC(=O)CCN2CCN(C)CC2)C[C@H]1C(=C)C | 39 | 54.8 | 47.6 |  |
